This is an account of results in patent US20220331492A1, “COMPOSITION AND METHOD FOR CONTROLLED DRUG RELEASE FROM A TISSUE” (Bard Shannon Limited, priority 2017, published 2022).

The conditions of series [1]: cited from earlier work.
The conditions of series [2]: mixed with fibrin glue; cited from earlier work.
Series [3] can be described thus: In vitro drug release from antibiotic-encapsulated PLGA microparticles. The series is classed as physicochemical. The conditions noted are these: drug encapsulated in free PLGA (50:50) microparticles; buffer, 37° C., 120 rpm. The protocol:
The amount of antibiotic was determined by dissolving 20 mg beads in 1 mL NaOH 1 M at 37° C. After complete dissolution, 1 mL of HCl 1 M was added to neutralize the pH. […] A mixture of NaOH 1 M and HCl 1 M (1:1) was used as a blank.
The gentamicin concentration was determined by a colormetric assay: 0.5 mL of the gentamicin solution was mixed with 0.35 mL of sodium phosphate buffer (50 mM, pH 7.4) and 0.15 mL of 1.25% ninhydrin solution. The reaction occurred at 95° C. for 15 minutes and the tubes were then cooled in an ice-water bath for 10 min. The UV-visible spectra over the wavelength range of 200-700 nm were measured using the mixture of ninhydrin and the respective buffer solution at the appropriate concentrations as the blanks. The gentamicin concentration was calculated at the maximal absorbance (λmax˜315 nm).
The microspheres (25 mg of ciprofloxacin-encapsulated PLGA beads, 80 mg of gentamicin encapsulated PLGA beads, 40 mg of vancomycin-encapsulated PLGA beads) were placed into glass vials filled with 10 mL solution (PBS for vancomycin and ciprofloxacin-encapsulated PLGA beads and sodium phosphate buffer for gentamicin encapsulated PLGA beads). The vials were placed in an orbital shaker incubator at 37° C., where they were shaken at 120 rpm. […] Finally, the 1.5 mL of suspension were returned back into the glass vials. For gentamicin, the reaction with ninhydrin is irreversible. 0.5 ml, of the solution was replaced each day with fresh sodium phosphate buffer to maintain a constant volume.

Series [4] is described as follows: Release of ciprofloxacin from PLGA microparticles embedded in enzymatically crosslinked gelatin matrix. The series is classed as physicochemical. The protocol:
Entrapment of microparticles in enzymatically crosslinked gelatin hydrogel was performed as follows.
This solution was mixed with 5.0 gr of gelatin solution. 0.25 gr of the mixture was cast in a glass vial, and curing occurred at 37° C. for 15 min. 5 mL of PBS was added to the vial to wash the gel. An additional 5 mL of PBS was added and the vial was placed in an orbital shaker incubator at 37° C. where it was shaken at 120 rpm. Once a day, 1.5 mL of the cured gel extract was centrifuged and 1 mL of the supernatant was taken to spectrophotometer to measure the drug concentration. After measurement, the 1.5 mL extract was returned back into the glass vials, crosslinked gelatin without beads was casted according to the same procedure and the extract was used as blank.

For series [5], the system named is Bacillus subtilis (ATCC 6633). Put plainly: Agar disk-diffusion (Kirby-Bauer) assay of crosslinked gelatin discs containing antibiotic PLGA beads. The series is classed as cell-based. Conditions: crosslinked gelatin hydrogel containing drug-loaded PLGA MPs; gels incubated in saline for 14 days. The protocol:
(§1) The bacteria used was Bacillus subtilis, which serves as a model microorganism for gram positive bacteria.
3 discs of 0.2 gr crosslinked gelatin containing 2% vancomycin-gentamicin-encapsulated PLGA beads were casted as previously reported 3 additional discs without beads were also casted and used as negative control. Filters containing 30 μg antibiotics (gentamicin or vancomycin) were used as positive controls.
The gel discs with and without beads and the filter containing antibiotics were placed in LB agar plates on which 100 μl of bacterium suspension had been evenly spread. The petri dishes were placed in an orbital shaker incubator at 37° C. where a horizontal shake was performed at 120 rpm.
(In general: A growth-free zone around the sample is the usual read-out of agar diffusion tests.)

The test system of series [6] is Bacillus subtilis (ATCC 6633). The experiment in a line: Microdilution assay of hydrogel disc extracts versus MIC. In kind it is cell-based. The conditions noted are these: extracts of crosslinked gelatin hydrogel containing 2% drug-loaded PLGA beads; throughout the study (1-14 days). As to the method:
as §1
6 discs of 0.2 gr crosslinked gelatin containing 2% vancomycin/gentamicin-encapsulated PLGA beads were casted in plastic mold of 12 mm diameter. After […] of curing at 37° C., the gels were separately placed in glass vial filled with 1.5 mL sodium phosphate buffer. The vials were placed in an incubator at 37° C. After 1, 2, 4, 7, 11 and 14 days, the gel was taken out and the hydrogel extract was frozen until test.
The antibacterial activity of the hydrogel discs extracts was studied by employing a microdilution method (FIG. 3b). Plates were prepared under sterile conditions. 100 μL of test materials were pipetted into the first column of the sterile 96-well plate. To all other wells 50 μL of saline was added. Serial dilutions were performed using a multichannel pipette. Tips were discarded after use such that each well had 50 μL of the test material in serially descending concentrations. […]
After 24 hours, the OD of each well was measured at 600 nm to determinate the presence or absence of bacterium. The lowest concentration at which […] was taken as the MIC value.

Take `CCOC(=O)c1ccc(N)cc1` [Benzocaine]: the water solubility entry in series [1] is given as “very low”.
`Cc1nnc(SCC2=C(C(=O)O)N3C(=O)[C@@H](NC(=O)Cn4cnnn4)[C@H]3SC2)s1` [cefazolin]: the release time in series [2] is reported as 2 days.
Turning to `O=C(O)c1cn(C2CC2)c2cc(N3CCNCC3)c(F)cc2c1=O` [ciprofloxacin], the “release kinetics after initial burst release” value (“release kinetics” below) in series [3] is “zero order kinetics”. Also, in series [4] (PLGA MPs embedded in in situ cross-linkable gelatin matrix), the “time over which the drug eluted” value is 2 weeks. In addition, in series [4] (PLGA MPs embedded in in situ enzymatically crosslinked gelatin, PBS, 37° C.), the “release rate of MPs embedded in gelatin matrix compared to free MPs” value was “somewhat slower”.
On to `CN[C@H](CC(C)C)C(=O)N[C@H]1C(=O)N[C@@H](CC(N)=O)C(=O)N[C@H]2C(=O)N[C@H]3C(=O)N[C@H](C(=O)N[C@H](C(=O)O)c4cc(O)cc(O)c4-c4cc3ccc4O)[C@H](O)c3ccc(c(Cl)c3)Oc3cc2cc(c3O[C@@H]2O[C@H](CO)[C@@H](O)[C@H](O)[C@H]2O[C@H]2C[C@](C)(N)[C@H](O)[C@H](C)O2)Oc2ccc(cc2Cl)[C@H]1O` [vancomycin], for which the “bacteria killing (ring around the gel) in agar diffusion assay” value in series [5] is on record as “still had enough drug remaining within the matrix to induce bacteria killing”. Further, the “concentration of the eluted antibiotic drug relative to MIC” value in series [6] is “considerably above MIC”. Moreover, in series [3], the “release kinetics” value was “zero order kinetics”.
Take gentamycin: the “bacteria killing (ring around the gel) in agar diffusion assay” value in series [5] is “still had enough drug remaining within the matrix to induce bacteria killing”. The “concentration of the eluted antibiotic drug relative to MIC” value in series [6] is “considerably above MIC”. Also, the “release kinetics” value in series [3] is “zero order kinetics”.
